The record followed here is publication PMC6403309, “Hybrid approach to sieve out natural compounds against dual targets in Alzheimer’s Disease” (Scientific Reports, 2019).

For orientation: inhibition means the percentage by which the read-out fell short of the control.

Test [1] addresses T1, BACE1 (Homo sapiens, UniProt P56817).
T1 construct: purchased Sigma Aldrich
Briefly: BACE1 inhibition assay (FRET activity assay kit). Conditions: for inhibition at 1 µM: read-out: Single point inhibition % (SPI1μM). In kind it is biochemical.

In test [2] the target is T2, Aβ25–35 (Homo sapiens, UniProt P05067).
T2 construct: Aβ25–35 was bought from Anaspec in powdered form; purchased Anaspec
The test is described as follows: Thioflavin T assay of Aβ25–35 aggregation. In kind it is biochemical. Conditions: compound 100 µM co-incubated with Aβ25–35 100 µM, 72 hours, 37 °C. The protocol:
The dye Thioflavin T (ThT), is used to quantify amyloid aggregates. On binding to the beta sheets of amyloid aggregates, the rotation of the ThT rings is hampered thus preserving the excited states leading to fluorescence enhancement. The Aβ25–35 sample was prepared by dissolving it in HFIP to remove any preformed aggregates and keeping aliquots at −80 °C. On the day of assay, aliquot of the HFIP dissolved Aβ25–35 (final concentration 100 µM) was lyophilized. Thereafter the lyophilized sample was dissolved in phosphate buffer. A stock solution of the compounds with concentration of 1 mM was prepared in DMSO. The compounds with final concentration of 100 µM were co-incubated with Aβ25–35 for 72 hours at 37 °C. The co-incubated samples were diluted five times. A stock solution of Thioflavin T was prepared in DMSO and final concentration of 15 µM was added. The fluorescence was measured by excitation at 440 nm and emission at 460–550 nm.

Like-named read-outs stand apart in the source and are kept apart here.

T1 sequence (P56817 46-501): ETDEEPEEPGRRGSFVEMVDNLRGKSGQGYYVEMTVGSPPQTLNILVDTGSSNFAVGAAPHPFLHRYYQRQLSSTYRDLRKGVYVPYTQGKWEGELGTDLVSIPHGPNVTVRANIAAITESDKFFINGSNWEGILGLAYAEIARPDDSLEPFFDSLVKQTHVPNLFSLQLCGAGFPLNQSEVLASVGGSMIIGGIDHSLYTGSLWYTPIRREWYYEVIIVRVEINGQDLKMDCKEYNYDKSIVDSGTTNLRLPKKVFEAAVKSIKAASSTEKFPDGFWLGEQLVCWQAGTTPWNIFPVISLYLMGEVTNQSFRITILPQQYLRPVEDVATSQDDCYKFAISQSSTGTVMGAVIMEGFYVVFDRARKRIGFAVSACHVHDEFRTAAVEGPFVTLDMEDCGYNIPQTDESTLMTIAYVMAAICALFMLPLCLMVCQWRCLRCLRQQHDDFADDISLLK

In the case of `O=c1c(O)c(-c2ccc(O)c(O)c2)oc2c(O)c(O)cc(O)c12` [Gossypetin, reference compound], in test [1], the inhibition at 1 µM came to 4.6%.
As to `COC(=O)C(Cc1ccccc1)NC(=O)COc1cc(O)c2c(=O)c(-c3ccc4c(c3)OCCO4)coc2c1` (stereo not shown) [ZINC01758814], the “reduction in the fibril formation” value in test [2] is recorded as “more than 50%”. Further, in test [1] (compound 1 µM), the “BACE1 inhibition activity (in words)” value is given as “moderate BACE1 inhibition activity”. Moreover, in test [1] (compound 1 µM, 37 °C, 2 hours), the inhibition at 1 µM was found to be 17%.
